Where no end group is shown, it is not given here.
Legend:
[1] = tested on: fibronectin; experiment: Fibronectin ELISA in NIH3T3 fibroblasts; type: cell-based; conditions: for fibronectin expression with the lapse of time: NIH3T3, peptide 1 μg/ml, 3, 10, 24 or 48 hr, ELISA (FIG. 7a); for fibronectin expression in the presence of DKK-1: NIH3T3, treated with both DKK-1 protein and peptide, ELISA (FIG. 7b)
Experimental: To verify whether the peptides synthesized in preparation Example 1 enhances the expression of fibronectin as a WNT target protein, NIH3T3 fibroblasts (4×10^3 cells) was added to each well of 96-well plates and cultured under 5% CO2 for 24 hr at 37° C. After 24-hr culture, the medium was changed with a fresh medium without serum and cells were treated with empty sample (for normalization), three peptides synthesized (1 μg/ml) and peptide complex (1 μg/ml) aseptically dissolved in 10% DMSO for 3 hr, 10 hr, 24 hr or 48 hr under the same conditions as described above. After 72 hr incubation, the cell culture was collected and the expression level of fibronectin was measured using Fibronectin ELISA kit (R&D systems, USA).
In addition, after DKK-1 protein was treated and cultured under the same conditions, the expression level of fibronectin was examined.

[2] = tested on: β-catenin; experiment: Western blot of β-catenin in HaCaT keratinocytes; type: cell-based; conditions: for expression level / activity of β-catenin: peptide 5 hr, Western blot (FIG. 5a); for β-catenin expression / activity in the presence of DKK-1: with DKK-1 (WNT inhibitor), Western blot (FIG. 5b)
Experimental: (§1) HaCaT kerationcytes cultured for 48 hr were incubated with the peptides synthesized in preparation Example 1 for 5 hr. The phosphorylation level of LRP5, which is the receptor of WNT protein and expression level of β-catenin, which is the signal molecule of WNT protein were examined respectively. The amount of Phopho-LRP5 and β-catenin were measured by Western blot analysis using an antibody against Phopho-LRP5 (Cell signaling) and β-catenin (SantaCruz, USA). In addition, the expression level of LEF-1 transcription factor was also observed, which is enhanced by β-catenin. […] First of all, it was shown that β-catenin activity is observed by treatment with the peptide of the present invention in spite of the presence of DKK-1 as a WNT inhibitor and a β-catenin signaling inhibitor (FIG. 5b). It was also observed that the expression level of LEF-1 transcription factor was increased by the treatment of the present peptides (FIG. 6).

[3] = tested on: NIH3T3 fibroblasts; experiment: SRB colorimetric cell growth assay, fibroblasts; type: cell-based; conditions: for growth of fibroblasts, microscope image: NIH3T3, 72 hr, observed under a microscope (FIG. 3b); for effect on the growth of fibroblasts: NIH3T3, peptide 1 ng/ml-10 μg/ml, 72 hr, SRB absorbance at 590 nm (FIG. 2b)
Experimental: (§2) In order to evaluate three peptides prepared in Preparation Examples 1-2 whether they have similar activities of growth factor, SRB (Sulforhodamine B; Sigma-Aldrich) colorimetric assay was carried out using HaCaT kerationcytes (Korean Cell Line Bank) and NIH3T3 fibroblasts (Korean Cell Line Bank) according to Rizzino et al. method (Rizzino, et al. Cancer Res., 48: 4266 (1988)).
(§3) HaCaT ketatinocytes, NIH3T3 fibroblasts, and HHFDPC hair follicle cells (cell science) were cultured in 250 ml-flasks containing DMEM (Dulbecco's Modified Eagle's minimal essential media; Gibco, USA) supplemented with 10% FBS (fetal bovine serum; Sigma). Cells cultured were treated with 1% trypsin solution to detach cells from the bottom of culture flasks and centrifuged to collect cell pellets. After cells were resuspended in DMEM not containing FBS, its aliquot (3×10^3 cells) was added to each well of 96-well plates and cultured under 5% CO2 for 24 hr at 37° C. After 24-hr culture, the medium was changed with a fresh medium without serum and cells were incubated with empty sample (for normalization) and peptides synthesized (1 ng/ml, 10 ng/ml, 100 ng/ml, 1 μg/ml and 10 μg/ml) aseptically dissolved in 10% DMSO for 72 hr under the same conditions as described above. After removing supernatants, cells were fixed with ethanol and then washed three times using PBS (phosphate buffered saline), followed by incubation with SRB solution. Cells were sufficiently washed with 1% acetic acid and observed under a microscope to find living cell condition. In addition, absorbance at 590 nm was measured to analyze cell viability. Meanwhile, after culturing under the same conditions, the tissue was immunostained by an immunohistochemical assay with ki-67 antibody (SantaCruz, USA) and the amount of ki-67 protein as a cell proliferation marker was observed.

[4] = tested on: HHFDPC hair follicle cells; experiment: SRB colorimetric cell growth assay, hair follicle cells; type: cell-based; conditions: 72 hr; for growth of cells in hair follicles, microscope image: observed under a microscope (FIG. 3c); for effect on the growth of cells in hair follicles: peptide 1 ng/ml-10 μg/ml, SRB absorbance at 590 nm (FIG. 2c)
Experimental: as §3

[5] = tested on: LRP5; experiment: Western blot of Phospho-LRP5 in HaCaT keratinocytes; type: cell-based; conditions: peptide 5 hr, Western blot (FIG. 4)
Experimental: as §1

[6] = tested on: C57BL/6 mouse back skin; experiment: Mouse hair growth, topical peptide nanosome; type: in vivo; conditions: nanosome topically twice every day for 15 days (FIG. 8)
Experimental: The peptide synthesized in Preparation Example 1 was formulated into nanosome. Afterwards, the back of C57BL/6 mouse was partially removed and then the skin was topically administered with the nanosome twice every day for 15 days.
50 mg of each peptide synthesized in preparation Examples was dissolved in 500 ml of distilled water by sufficient agitation. The peptide solution was mixed with 5 g lecithin, 0.3 ml sodium oleate, 50 ml ethanol and a small amount of oils, and its volume was adjusted with distilled water to 1 L. The resulting solution was subjected to a microfluidizer under high pressure for emulsification, thereby providing nanosomes having about 100-nm size. The nanosomes were prepared to have a final concentration of about 50 ppm and used as ingredients for cosmetics.

[7] = tested on: HaCaT keratinocytes; experiment: SRB colorimetric cell growth assay, keratinocytes; type: cell-based; conditions: 72 hr; for growth of keratinocytes, microscope image: observed under a microscope (FIG. 3a); for effect on the growth of keratinocytes: peptide 1 ng/ml-10 μg/ml, SRB absorbance at 590 nm (FIG. 2a)
Experimental: as §2, §3

Row | Substance | fibronectin expression with the lapse of time [1] | fibronectin expression in the presence of DKK-1 [1] | expression level / activity of β-catenin [2] | β-catenin expression / activity in the presence of DKK-1 [2] | growth of fibroblasts, microscope image [3] | effect on the growth of fibroblasts [3] | growth of cells in hair follicles, microscope image [4] | effect on the growth of cells in hair follicles [4] | phosphorylation level of LRP5 [5] | hair growth on mouse back skin [6] | growth of keratinocytes, microscope image [7] | effect on the growth of keratinocytes [7]
1 | LCCGRGHRTRTQR (cysteine pairing not given here) [peptide-1] | gradually elevated | restored and enhanced | enhancement | β-catenin expression in spite of the presence of DKK-1 | promote the growth | stimulatory effect | promote the growth | stimulatory effect | enhancement | activity for promoting hair growth | promote the growth | stimulatory effect
2 | peptide-2: WNT-derived peptide, amino acid sequence LCCGRGHNAR (WNT-derived peptide 2) | gradually elevated | restored and enhanced | enhancement | β-catenin expression in spite of the presence of DKK-1 | promote the growth | stimulatory effect | promote the growth | stimulatory effect | enhancement | activity for promoting hair growth | promote the growth | stimulatory effect
3 | peptide-3: WNT-derived peptide, amino acid sequence AERRRELCRC (WNT-derived peptide 3) | gradually elevated | restored and enhanced | enhancement | β-catenin expression in spite of the presence of DKK-1 | promote the growth | stimulatory effect | promote the growth | stimulatory effect | enhancement | activity for promoting hair growth | promote the growth | stimulatory effect
4 | peptide-4: WNT-derived peptide, amino acid sequence LCCGRGHNVL (WNT-derived peptide 4) | gradually elevated | restored and enhanced | enhancement | β-catenin expression in spite of the presence of DKK-1 | promote the growth | stimulatory effect | promote the growth | stimulatory effect | enhancement | activity for promoting hair growth | promote the growth | stimulatory effect

— patent publication US9295629B2, “WNT family-derived peptides and use thereof” (CAREGEN CO., LTD., priority 2011, dated 2016)
